Laboratory results as given in patent publication US20240316020A1, “Novel Pyridine Compounds” (ICAGEN, LLC, priority 2021, published 2024).

Legend:
human Kv7.2 = human Kv7.2 (Homo sapiens (Human), UniProt O43526); test: SyncroPatch 384 electrophysiology, CHO cells stably expressing human Kv7.2; type: cell-based
Protocol: (§1) The potency of Kv7 potentiators was determined using the SyncroPatch 384 (Nanion) high throughput electrophysiology platform.
(§2) CHO cells stably expressing either human Kv7.2, Kv7.4 or Kv7.5/7.3 under a constitutive CMV promoter were used for these studies. Cells were maintained in F12 Hams+1 mM L-glutamine (Hyclone) supplemented with 10% FBS (Sigma), 0.3×NEAA (Non-essential Gamino-acids) and 400 ug/ml G418 at 37° C. in 5% CO2. Cells were cultured in T-225 flasks (Nunc) for 2-3 days to reach 85-95% confluence prior to electrophysiological recording.
(§3) Earle's balanced salt solution (in mM): 135 NaCl, 5.4 KCl, 5 Glucose, 2 CaCl2, 1 MgCl2, 5 HEPES, pH 7.4. Seal enhancer solution (in mM): 90 NaCl, 3 KCl, 35 CaCl2, 10 MgCl2, 10 HEPES, pH 7.4. Extracellular recording solution (in mM): 71 NaCl, 70 NMDG, 13 KCl, 5 Glucose, 2 CaCl2, 1 MgCl2, 10 HEPES, pH 7.4. Intracellular recording solution (in mM): 130 KF, 20 KCl, 4 EGTA, 10 HEPES, 2 EDTA, 0.01 Escin, pH 7.2.
(§4) Cells were harvested for electrophysiological recording upon reaching appropriate confluence. Cells were first washed in DPBS (Hyclone, Cat #SH30028.03) and then 2 ml of Accutase (MP Biomedicals #1000449) was added at 28° C. until ˜90% of cells were suspended. F12 HAM's media+1 mM L-glutamine (Hyclone, SH30026.02) was then added to the flask to dilute the accutase. Cells were then triturated until a single cell suspension was achieved, a cell count was performed, and cells were centrifuged for 2 min. at 1,000 rpm. Media was then aspirated, and cells were resuspended in Earle's balanced salt solution to a concentration of 0.75×10^6 cells/ml and allowed to recover for 25 min at 10° C.
(§5) At the beginning of each assay, 20 μl of cell suspension was dispensed into each well of a multi-hole 384-well SyncroPatch chip by the onboard pipettor. Cell sealing was initiated, and seal enhancer solution was added to facilitate seal formation. Upon completion of sealing, cells were washed 3 times with extracellular recording solution and the assay voltage protocol was started. Human Kv7.2, Kv7.4 or Kv7.5/7.3 channels were evaluated using a voltage protocol in which cells were voltage-clamped at a holding potential of −60 mV. Potassium currents were continuously activated with a series of three voltage steps to −30 mV for 3 seconds, 40 mV for 1 second and −90 mV for 4 seconds with 12 seconds between successive voltage sweeps. Potassium currents were measured from the −90 mV repolarizing step. Baseline current was assessed for 3.5 minutes prior to the addition of 5.6 μM zinc pyrithione (1 μM for Kv7.4). Kv7.2, Kv7.4 or Kv7.5/7.3 current in the presence of zinc pyrithione was acquired over five minutes to allow channels to reach steady state activity prior to addition of test agents. Channel activity was monitored for three minutes preceding the addition of 30 μM ML-213 (3 minutes) to achieve maximum activation.
(§6) Data were collected on the SyncroPatch platform using PatchControl software (Nanion) and processed and analyzed using DataControl Software (Nanion). Percent activation was calculated from potassium current as follows: The average current for the 5 sweeps in the presence of zinc pyrithione immediately preceding test agent addition was taken as the ‘control’ data. Likewise, the average potassium current in the presence of test agents 5 sweeps immediately preceding addition of 30 μM ML-213 was determined for ‘drug’ data. The average potassium current 5 sweeps immediately prior to addition of 150 mM TEA+10 μM XE-991 was determined for ‘max activation’ data while average currents from 5 sweeps immediately following addition of TEA was determined for ‘max inhibition’ data. Percent activation for each of the 384-wells of a sealchip was calculated as ((‘drug’−‘max inhibition’)/(‘max activation’−‘max inhibition’))*100 with Pipeline Pilot (Accelrys). […]

human Kv7.5/7.3 = human Kv7.5/7.3 (Homo sapiens (Human), UniProt O43525+Q9NR82); test: SyncroPatch 384 electrophysiology, CHO cells stably expressing human Kv7.5/7.3; type: cell-based; conditions: Table A; for Kv7.5/7.3/Kv7.2 selectivity ratio: Kv7.5/7.3 EC50 over Kv7.2 EC50
Sequence of human Kv7.5/7.3 (Q9NR82 whole entry): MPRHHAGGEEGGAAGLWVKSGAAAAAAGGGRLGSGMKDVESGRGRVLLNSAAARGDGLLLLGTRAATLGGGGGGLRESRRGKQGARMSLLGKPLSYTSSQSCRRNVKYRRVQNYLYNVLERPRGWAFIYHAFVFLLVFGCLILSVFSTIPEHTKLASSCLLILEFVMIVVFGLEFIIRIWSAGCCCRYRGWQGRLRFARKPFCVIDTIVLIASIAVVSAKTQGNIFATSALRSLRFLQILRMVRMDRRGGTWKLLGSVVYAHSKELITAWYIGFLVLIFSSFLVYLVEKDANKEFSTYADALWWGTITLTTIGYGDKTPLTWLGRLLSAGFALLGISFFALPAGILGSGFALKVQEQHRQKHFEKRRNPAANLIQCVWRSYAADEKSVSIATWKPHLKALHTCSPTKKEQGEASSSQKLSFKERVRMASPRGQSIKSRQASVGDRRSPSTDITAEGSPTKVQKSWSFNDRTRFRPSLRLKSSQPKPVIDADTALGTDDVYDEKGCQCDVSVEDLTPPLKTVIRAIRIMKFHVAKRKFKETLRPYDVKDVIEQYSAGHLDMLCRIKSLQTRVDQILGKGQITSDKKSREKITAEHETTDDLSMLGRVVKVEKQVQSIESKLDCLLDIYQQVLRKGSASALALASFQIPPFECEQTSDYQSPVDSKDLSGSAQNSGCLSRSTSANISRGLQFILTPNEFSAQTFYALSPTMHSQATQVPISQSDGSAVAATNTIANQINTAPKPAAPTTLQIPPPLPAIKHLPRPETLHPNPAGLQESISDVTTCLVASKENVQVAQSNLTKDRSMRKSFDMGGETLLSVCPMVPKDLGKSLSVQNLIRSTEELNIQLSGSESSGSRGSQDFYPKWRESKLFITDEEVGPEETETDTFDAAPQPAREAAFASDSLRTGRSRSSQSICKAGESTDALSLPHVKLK
Sequence of human Kv7.5/7.3 (O43525 whole entry): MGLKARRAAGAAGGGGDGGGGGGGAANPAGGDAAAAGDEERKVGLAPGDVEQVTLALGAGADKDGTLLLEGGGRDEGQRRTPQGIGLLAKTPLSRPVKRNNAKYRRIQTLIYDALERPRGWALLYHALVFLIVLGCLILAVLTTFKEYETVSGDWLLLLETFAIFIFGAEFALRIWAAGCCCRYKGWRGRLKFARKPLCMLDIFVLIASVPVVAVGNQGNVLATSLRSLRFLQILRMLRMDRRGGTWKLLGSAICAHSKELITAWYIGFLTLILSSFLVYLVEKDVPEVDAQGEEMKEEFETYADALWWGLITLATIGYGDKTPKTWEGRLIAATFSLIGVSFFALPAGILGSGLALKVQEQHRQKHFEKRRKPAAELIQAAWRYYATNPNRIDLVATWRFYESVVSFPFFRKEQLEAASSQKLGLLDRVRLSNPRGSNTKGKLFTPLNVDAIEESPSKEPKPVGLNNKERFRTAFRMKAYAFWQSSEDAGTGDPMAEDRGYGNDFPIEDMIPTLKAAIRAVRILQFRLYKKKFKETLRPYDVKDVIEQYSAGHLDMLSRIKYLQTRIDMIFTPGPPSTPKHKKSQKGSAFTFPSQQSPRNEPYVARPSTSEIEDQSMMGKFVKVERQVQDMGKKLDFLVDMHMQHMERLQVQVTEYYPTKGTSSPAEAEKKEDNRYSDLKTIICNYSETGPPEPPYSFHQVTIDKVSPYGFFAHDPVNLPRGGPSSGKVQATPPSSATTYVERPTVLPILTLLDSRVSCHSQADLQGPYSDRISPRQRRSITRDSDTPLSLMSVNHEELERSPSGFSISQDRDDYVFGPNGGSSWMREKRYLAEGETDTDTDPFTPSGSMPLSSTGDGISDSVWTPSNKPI
Protocol: as §1, §2, §3, §4, §5, §6

[1] = Human liver microsomal clearance; type: in vitro ADME; conditions: both sexes, liver microsomes, Table B, 0.5 μM compound, 0.25 mg/mL microsomes, NADPH, 37° C., read-out: Human liver microsomal intrinsic clearance CLint
Protocol: Pooled mixed gender human liver microsomes were purchased from BioIVT at a concentration of 20 mg protein/mL and stored at −80° C. Incubations were conducted in V-bottomed 350 μL polypropylene 96-well plates. Compounds were diluted in phosphate buffer (final concentrations 0.5 μM compound, 0.5% DMSO) and mixed with diluted liver microsomes (fc 0.25 mg/mL). This mixture was aliquoted onto the assay plate (six wells per compound) and pre-warmed at 37° C. for ten minutes. Addition of NADPH (fc 0.5 mM, final incubation volume 100 μL) to each well started the time course. Reactions were stopped at 0.5, 3, 5, 10, 20 & 30 minutes by addition of 150 μL acetonitrile containing internal standard (IS; 0.125 μg/mL daidzein) and stopped samples were removed to a clean polypropylene plate. At the end of the assay the plate was refrigerated for an hour and then centrifuged at 3000 rpm for 10 minutes at 4° C. A sample of the supernatant was removed to a fresh plate and diluted 10-fold with 50:50 acetonitrile:water, then heat sealed. Analysis was by liquid chromatography coupled with tandem mass spectrometry (LC-MS/MS) for analyte and IS levels. Ratios of the analyte and IS peak areas were generated for results calculation (IS ratio). Dextromethorphan and verapamil were included in each experiment as controls for high clearance compounds. IS ratio data were converted into natural log values which were plotted against time and a linear regression fit applied. The slope of the line was returned and converted into the elimination constant (kel) by multiplying by −1. The elimination constant was used to calculate the in vitro CLint: in vitro CLint (μL/min/mg protein) is kel* (1000/protein conc in mg/mL).

human Kv7.4 = human Kv7.4 (Homo sapiens (Human), UniProt P56696); test: SyncroPatch 384 electrophysiology, CHO cells stably expressing human Kv7.4; type: cell-based; conditions: Table C; for Kv7.4/Kv7.2 selectivity ratio: Kv7.4 EC50 over Kv7.2 EC50
Sequence of human Kv7.4 (P56696 whole entry): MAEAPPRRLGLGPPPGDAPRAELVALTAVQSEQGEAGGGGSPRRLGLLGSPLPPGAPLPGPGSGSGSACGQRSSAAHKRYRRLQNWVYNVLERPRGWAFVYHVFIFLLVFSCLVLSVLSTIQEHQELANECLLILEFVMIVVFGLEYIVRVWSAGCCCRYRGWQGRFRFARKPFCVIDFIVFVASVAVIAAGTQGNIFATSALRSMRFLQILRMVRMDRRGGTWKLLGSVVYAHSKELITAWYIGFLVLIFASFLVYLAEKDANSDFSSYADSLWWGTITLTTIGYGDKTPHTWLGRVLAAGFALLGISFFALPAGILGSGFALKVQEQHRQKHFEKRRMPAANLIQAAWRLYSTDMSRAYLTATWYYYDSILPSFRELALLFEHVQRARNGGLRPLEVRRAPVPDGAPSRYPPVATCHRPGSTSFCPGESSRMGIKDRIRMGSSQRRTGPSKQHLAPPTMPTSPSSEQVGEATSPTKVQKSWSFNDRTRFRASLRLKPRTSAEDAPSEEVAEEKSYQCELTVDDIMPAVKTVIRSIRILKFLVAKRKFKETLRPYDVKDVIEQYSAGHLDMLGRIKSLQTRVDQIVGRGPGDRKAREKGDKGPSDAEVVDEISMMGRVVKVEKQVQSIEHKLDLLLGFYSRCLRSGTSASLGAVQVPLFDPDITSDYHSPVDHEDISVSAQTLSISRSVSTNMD
Protocol: as §1, §2, §3
Cells were harvested for electrophysiological recording upon reaching appropriate confluence. Cells were first washed in DPBS (Hyclone, Cat #SH30028.03) and then 2 ml of Accutase (MP Biomedicals #1000449) was added at 28° C. until ˜90% of cells were suspended. F12 HAM's media+1 mM L-glutamine (Hyclone, SH30026.02) was then added to the flask to dilute the accutase. […]
At the beginning of each assay, 20 μl of cell suspension was dispensed into each well of a multi-hole 384-well SyncroPatch chip by the onboard pipettor. […] Human Kv7.2, Kv7.4 or Kv7.5/7.3 channels were evaluated using a voltage protocol in which cells were voltage-clamped at a holding potential of −60 mV. […] Potassium currents were measured from the −90 mV repolarizing step. Baseline current was assessed for 3.5 minutes prior to the addition of 5.6 μM zinc pyrithione (1 μM for Kv7.4). […] Channel activity was monitored for three minutes preceding the addition of 30 μM ML-213 (3 minutes) to achieve maximum activation.
as §6, with “data.” for “data. Percent activation for each of the 384-wells of a sealchip was calculated as ((‘drug’−‘max inhibition’)/(‘max activation’−‘max inhibition’))*100 with Pipeline Pilot (Accelrys).”

[2] = Table 1, CHO cells, potassium current at -90 mV step, in presence of zinc pyrithione

Sequence of human Kv7.2 (O43526 whole entry): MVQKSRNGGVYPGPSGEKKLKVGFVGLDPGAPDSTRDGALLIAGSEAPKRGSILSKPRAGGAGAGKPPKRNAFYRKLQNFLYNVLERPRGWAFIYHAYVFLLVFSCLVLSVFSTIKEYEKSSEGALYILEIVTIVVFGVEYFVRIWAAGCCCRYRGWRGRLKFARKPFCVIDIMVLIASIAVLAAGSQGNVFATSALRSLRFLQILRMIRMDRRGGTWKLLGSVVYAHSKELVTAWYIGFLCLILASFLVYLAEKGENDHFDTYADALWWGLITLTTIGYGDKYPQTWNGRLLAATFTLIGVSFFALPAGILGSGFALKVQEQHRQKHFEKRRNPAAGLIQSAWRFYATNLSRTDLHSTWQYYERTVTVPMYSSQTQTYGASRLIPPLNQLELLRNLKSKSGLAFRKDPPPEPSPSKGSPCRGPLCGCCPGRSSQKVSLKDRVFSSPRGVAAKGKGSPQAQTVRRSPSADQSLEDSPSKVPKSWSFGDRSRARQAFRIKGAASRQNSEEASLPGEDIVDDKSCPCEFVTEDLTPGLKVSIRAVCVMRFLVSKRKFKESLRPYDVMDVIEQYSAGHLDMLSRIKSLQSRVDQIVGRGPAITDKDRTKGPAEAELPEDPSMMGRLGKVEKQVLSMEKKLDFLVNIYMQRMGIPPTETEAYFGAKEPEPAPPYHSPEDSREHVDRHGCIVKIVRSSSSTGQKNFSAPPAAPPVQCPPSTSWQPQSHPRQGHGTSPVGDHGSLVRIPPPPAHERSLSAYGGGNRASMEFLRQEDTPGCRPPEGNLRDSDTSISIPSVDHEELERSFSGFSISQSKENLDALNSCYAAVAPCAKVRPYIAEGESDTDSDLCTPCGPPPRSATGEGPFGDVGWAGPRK

EC50 (human Kv7.2; [2]) [nM]	EC50 (human Kv7.5/7.3) [nM]	Kv7.5/7.3/Kv7.2 selectivity ratio (human Kv7.5/7.3)	microsomal CLint at 0.5 μM [1] [µL/min/mg]	EC50 (human Kv7.2; Table A) [nM]	EC50 (human Kv7.2; Table C) [nM]	EC50 (human Kv7.4) [nM]	Kv7.4/Kv7.2 selectivity ratio (human Kv7.4)	SMILES
740	> 30000	>41	14.2					O=C(NCc1ccnc(OC(F)F)c1)N[C@H]1CC2(CCC2)[C@@H]1O (racemic) [Example 25, 1-[[2-(difluoromethoxy)pyridin-4-yl]methyl]-3-[rac-(2R,3R)-3-hydroxyspiro[3.3]heptan-2-yl]urea]
260	> 30000	>115	20.5	260	260	> 30000	>115	O=C(NCc1ccnc(OC(F)F)c1)N[C@@H]1CCOC2(CCC2)C1 [Example 27, 1-[[2-(difluoromethoxy)pyridin-4-yl]methyl]-3-[(8R)-5-oxaspiro[3.5]nonan-8-yl]urea]
140			18.8					O=C(NCc1ccnc(OC(F)F)c1)NC1CCC2(CC1)CC2(F)F (stereo not shown) [Example 31, 1-[[2-(difluoromethoxy)pyridin-4-yl]methyl]-3-(2,2-difluorospiro[2.5]octan-6-yl)urea]

Second part, the molecule before the results:

SMILES	EC50 (human Kv7.2; [2]) [nM]	EC50 (human Kv7.5/7.3) [nM]	Kv7.5/7.3/Kv7.2 selectivity ratio (human Kv7.5/7.3)	microsomal CLint at 0.5 μM [1] [µL/min/mg]	EC50 (human Kv7.2; Table A) [nM]	EC50 (human Kv7.2; Table C) [nM]	EC50 (human Kv7.4) [nM]	Kv7.4/Kv7.2 selectivity ratio (human Kv7.4)
O=C(NCc1ccnc(OC(F)F)c1)NC1CCOC2(CCCC2)C1 (stereo not shown) [Example 14, 1-[[2-(difluoromethoxy)pyridin-4-yl]methyl]-3-(6-oxaspiro[4.5]decan-9-yl)urea]	260	> 30000	>116	20	260			
O=C(NCc1ccnc(OC(F)F)c1)NC1CCOC2(CCC2)C1 (stereo not shown) [Example 17, 1-[[2-(difluoromethoxy)pyridin-4-yl]methyl]-3-(5-oxaspiro[3.5]nonan-8-yl)urea]	340	> 30000	>87	3.8				
O=C(NCc1ccnc(OC(F)F)c1)NC1CCOC2(CCCC2(F)F)C1 (stereo not shown) [Example 21, 1-[[2-(difluoromethoxy)pyridin-4-yl]methyl]-3-(4,4-difluoro-6-oxaspiro[4.5]decan-9-yl)urea]	210	> 30000	>146	20.4	210	210	> 30000	>143
